Reference: article PMC10363032 (Cancer Chemotherapy and Pharmacology, 2023)

Assay: plasma pharmacokinetics of probe cocktail substrates and metabolites with and without adavosertib in patients
Settings: for Vd/F: Mean Vz/F, L (SD); for increase in Cmax on adavosertib co-administration / increase in exposure (AUC0–12) on adavosertib co-administration / increase in exposure (AUC0–t) on adavosertib co-administration: adavosertib 225 mg bid vs cocktail alone; for Point estimates of the geometric LS mean ratios S + AD/S, % (90% CI): AUC / Point estimates of the geometric LS mean ratios S + AD/S, % (90% CI): AUC0–t / Point estimates of the geometric LS mean ratios S + AD/S, % (90% CI): Cmax: substrate + adavosertib 225 mg bid vs substrate alone
Experimental: This sampling period was selected based on the half-lives of the probe substrates.
Plasma concentrations for caffeine, paraxanthine, omeprazole, 5-HO, midazolam, and 1ʹ-HM were all determined by high-performance liquid chromatography–tandem mass spectrometry (HPLC–MS/MS) at Labcorp Bioanalytical Laboratories (Madison, WI, USA).
Plasma concentrations of caffeine and paraxanthine collected with K2EDTA as anticoagulant were determined by HPLC–MS/MS detection simultaneously. The standard curves of caffeine and paraxanthine both ranged from 25.0 to 20,000 ng/mL. […] The lower limit of quantification (LLOQ) was 25.0 ng/mL for caffeine and paraxanthine.
Plasma concentrations of omeprazole and 5-HO were collected with lithium heparin as anticoagulant and were determined by HPLC–MS/MS detection simultaneously. […] The LLOQ was 20.0 nM for omeprazole and 5-HO.
Plasma concentrations of midazolam and 1ʹ-HM were collected with K2EDTA as anticoagulant and were determined by HPLC–MS/MS detection simultaneously. The standard curves of midazolam and 1ʹ-HM both ranged from 0.100 to 100 ng/mL. […] The LLOQ was 0.1 ng/mL for midazolam and 1ʹ-HM.
PK parameters were derived using non-compartmental methods with Phoenix® WinNonlin® version 6.4 (Certara, LP, Princeton, NJ, USA). All descriptive and inferential statistical computations were performed using SAS® version 9.1 (SAS Institute, Cary, NC, USA).

[1] = − AD (cocktail alone, period 1)

Row | Compound | Mean CL/F, L/h (SD) (human, in vivo) | Mean t½ h (SD) (human, in vivo) | Median tmax, h (range) (human, in vivo) | Vd/F (human, in vivo) | increase in Cmax on adavosertib co-administration | increase in exposure (AUC0–12) on adavosertib co-administration | increase in exposure (AUC0–t) on adavosertib co-administration | Point estimates of the geometric LS mean ratios S + AD/S, % (90% CI): AUC | Point estimates of the geometric LS mean ratios S + AD/S, % (90% CI): AUC0–t | Point estimates of the geometric LS mean ratios S + AD/S, % (90% CI): Cmax | Median tmax, h (range) [1] | Mean MR (metabolic ratio in relation to parent compound), AUC (human, in vivo) | Mean MR (metabolic ratio in relation to parent compound), AUC0–t (human, in vivo) | Mean MR (metabolic ratio in relation to parent compound), Cmax (human, in vivo) | half-life (human, in vivo, Mean t½ h (SD)) | also measured
1 | Cn1c(=O)c2c(ncn2C)n(C)c1=O [Caffeine, caffeine, reference compound] | 5.7 (2.5) L/h | 6.4 (3.8) h | 0.5 (0.3–3.0) h | 39.3 L | – | – | – | – | – | – | – | – | – | – | – | –
2 | OCc1ncc2n1-c1ccc(Cl)cc1C(c1ccccc1F)=NC2 [1ʹ-HM, 1ʹ-hydroxymidazolam] | – | – | – | – | 33% | 54% | 58% | 153.5 (131.0–179.8) % | 158.2 (139.1–180.0) % | 133.4 (106.5–167.1) % | 0.5 (0.3–2.1) h | – | – | – | – | Mean MR (metabolic ratio in relation to parent compound), AUC (− AD): 0.41; Mean MR (metabolic ratio in relation to parent compound), AUC0–t (− AD): 0.43; Mean MR (metabolic ratio in relation to parent compound), Cmax (− AD): 0.47; Mean t½ h (SD) [1]: 7.2 (6.1) h
3 | Cc1ncc2n1-c1ccc(Cl)cc1C(c1ccccc1F)=NC2 [Midazolam, midazolam, reference compound] | – | – | – | – | 39% | 55% | 55% | 155.3 (138.6–173.9) % | 155.2 (140.5–171.5) % | 138.5 (118.9–161.3) % | 0.5 (0.2–1.0) h | – | – | – | – | half-life (human, in vivo): 5.5 h; Vd/F (human, in vivo, + AD (adavosertib 225 mg bid, period 2)): 364 L; Vd/F (human, in vivo, − AD (cocktail alone, period 1)): 410 L; Mean CL/F, L/h (SD) [1]: 59.0 (34.3) L/h
4 | COc1ccc2nc([S+]([O-])Cc3ncc(CO)c(OC)c3C)[nH]c2c1 (stereo not shown) [5-HO, 5-hydroxyomeprazole] | – | 2.7 (1.7) h | 3.0 (0.7–6.0) h | – | – | – | – | – | – | – | – | 0.50 | 0.73 | 0.53 | – | –
5 | Cn1c(=O)[nH]c2ncn(C)c2c1=O [Paraxanthine, paraxanthine] | – | – | 8.0 (4.0–11.8) h | – | – | – | – | – | – | – | – | 0.65 | 0.54 | 0.23 | 7 h | –
6 | COc1ccc2[nH]c([S+]([O-])Cc3ncc(C)c(OC)c3C)nc2c1 (stereo not shown) [Omeprazole, omeprazole, reference compound] | 13.3 (10.5) L/h | – | 3.0 (0.7–6.0) h | 28.3 L | – | – | – | – | – | – | – | – | – | – | 2 h | –
